Test system: GPR40
Assay: two-bottle preference test of fat emulsions, GPR40 knockout vs normal mice
Format: in vivo, mouse
Conditions: GPR40 knockout mice compared to control mice; fat emulsion vs vehicle only, two drinking bottles
Excerpt: A preference ratio of 0.5 indicates indifference, above 0.5 indicates preference and below 0.5 indicates avoidance. Both preference and intake of fat are diminished in the GPR40 KO mice compared to control mice. The stars show the concentrations of lipids at which the differences of intake or preference between knockout and control mice are statistically significant. […] The fat emulsions contained corn oil, Intralipid, lauric acid or oleic acid. When compared with normal mice, the knockout animals drank less fat. […] Because mice can still detect fat in the absence of GPR40, another receptor, probably GPR120, must also play a role in fat taste signaling.

Row | Compound | intake of fat emulsion | preference for fat emulsion
1 | CCCCCCCCCCCC(=O)O [lauric acid] | diminished | diminished
2 | CCCCCCCC/C=C\CCCCCCCC(=O)O [oleic acid] | diminished | diminished
